Assay results as given in ChEMBL document CHEMBL2073748, “Na(+)-dependent carnitine transport by organic cation transporter (OCTN2): its pharmacological and toxicological relevance” (J Pharmacol Exp Ther, 1999).
Starred links: 1 amine or outer side, 2 acyl side, 3 side chain; linkers in the order of their positions; H or OH if unused. Positions of bridges follow the written chain, without caps; N, C: chain ends. Non-standard residues stand in square brackets, D forms with d. Residues, ends and D or L forms follow the SMILES beside them. Chains are numbered I, II in the order given. Actinocin(9to1) = Cc1c2oc3c(C)ccc(C(=O)[*:1])c3nc-2c(C(=O)[*:2])c(N)c1=O; NMeV = CN[C@H](C(=O)O)C(C)C; Sar = CNCC(=O)O

What was measured:
[1] = molecular target: T1, OCTN2 (organic cation/carnitine transporter 2) (Homo sapiens, UniProt O76082); experiment: TP_TRANSPORTER: inhibition of Carnitine uptake (Carnitine: 0.010? uM, S-methylmethionine sufonium: 500 uM) in OCTN2-expressing HEK293 cells; type: functional, cell-based; set-up: scale not given: the % may be the effect or the level left; conditions: HEK293 cells that express OCTN2, probe Carnitine, read-out: Activity
T1 sequence (O76082 whole entry): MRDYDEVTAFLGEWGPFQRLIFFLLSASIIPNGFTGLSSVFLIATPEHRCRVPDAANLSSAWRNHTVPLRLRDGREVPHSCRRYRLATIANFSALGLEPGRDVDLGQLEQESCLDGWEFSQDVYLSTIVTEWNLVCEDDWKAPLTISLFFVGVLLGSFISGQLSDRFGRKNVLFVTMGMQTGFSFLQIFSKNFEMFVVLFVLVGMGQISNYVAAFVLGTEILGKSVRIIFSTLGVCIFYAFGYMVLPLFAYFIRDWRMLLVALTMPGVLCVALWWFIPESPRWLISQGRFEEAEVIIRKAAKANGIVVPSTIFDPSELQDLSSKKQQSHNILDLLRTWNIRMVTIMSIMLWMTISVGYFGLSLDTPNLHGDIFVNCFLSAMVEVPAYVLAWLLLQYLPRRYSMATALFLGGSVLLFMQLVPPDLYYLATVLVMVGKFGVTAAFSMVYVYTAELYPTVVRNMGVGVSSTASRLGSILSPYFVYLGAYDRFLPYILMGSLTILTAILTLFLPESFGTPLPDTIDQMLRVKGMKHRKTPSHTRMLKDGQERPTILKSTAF

[2] = molecular target: T2, Organic cation/carnitine transporter 2 (Homo sapiens, UniProt O76082); experiment: TP_TRANSPORTER: uptake in OCTN2-expressing HEK293 cells; type: functional, cell-based
T2 sequence (O76082 whole entry): T1 sequence (O76082 whole entry)

[3] = molecular target: T1, OCTN2 (organic cation/carnitine transporter 2); experiment: TP_TRANSPORTER: inhibition of Carnitine uptake (Carnitine: 0.010? uM, MPP+: 100 uM) in OCTN2-expressing HEK293 cells; type: functional, cell-based; set-up: scale not given: the % may be the effect or the level left; conditions: HEK293 cells that express OCTN2, probe Carnitine, read-out: Activity
[4] = molecular target: T1, OCTN2 (organic cation/carnitine transporter 2); experiment: TP_TRANSPORTER: inhibition of Carnitine uptake (Carnitine: 0.010? uM, Aldosterone: 500 uM) in OCTN2-expressing HEK293 cells; type: functional, cell-based; set-up: scale not given: the % may be the effect or the level left; conditions: HEK293 cells that express OCTN2, probe Carnitine, read-out: Activity
[5] = molecular target: T2, Organic cation/carnitine transporter 2; experiment: TP_TRANSPORTER: inhibition of Carnitine uptake (Carnitine: 0.010? uM, Arginine: 500 uM) in OCTN2-expressing HEK293 cells; type: functional, cell-based; conditions: hek293, 500 µM
[6] = molecular target: T2, Organic cation/carnitine transporter 2; experiment: TP_TRANSPORTER: inhibition of Carnitine uptake (Carnitine: 0.010? uM, Carnosine: 500 uM) in OCTN2-expressing HEK293 cells; type: functional, cell-based; conditions: hek293, 500 µM
[7] = molecular target: T1, OCTN2 (organic cation/carnitine transporter 2); experiment: TP_TRANSPORTER: inhibition of Carnitine uptake (Carnitine: 0.010? uM, Cefsulodin: 500 uM) in OCTN2-expressing HEK293 cells; type: functional, cell-based; set-up: scale not given: the % may be the effect or the level left; conditions: HEK293 cells that express OCTN2, probe Carnitine, read-out: Activity
[8] = molecular target: T2, Organic cation/carnitine transporter 2; experiment: TP_TRANSPORTER: inhibition of Carnitine uptake (Carnitine: 0.010? uM, Cephaloglycin: 500 uM) in OCTN2-expressing HEK293 cells; type: functional, cell-based; conditions: hek293, 500 µM
[9] = molecular target: T2, Organic cation/carnitine transporter 2; experiment: TP_TRANSPORTER: inhibition of Carnitine uptake (Carnitine: 0.010? uM, Cephalotin: 500 uM) in OCTN2-expressing HEK293 cells; type: functional, cell-based; conditions: hek293, 500 µM
[10] = molecular target: T1, OCTN2 (organic cation/carnitine transporter 2); experiment: in vitro; conditions: HEK293 cells that express OCTN2, probe Carnitine
Description: TP_TRANSPORTER: inhibition of Carnitine uptake (Carnitine: 0.010? uM, Cimetidine: 500 uM) in OCTN2-expressing HEK293 cells

[11] = molecular target: T1, OCTN2 (organic cation/carnitine transporter 2); experiment: in vitro; conditions: HEK293 cells that express OCTN2, probe Carnitine; remark: listed apart in the source
Description: TP_TRANSPORTER: inhibition of Carnitine uptake (Carnitine: 0.010? uM, Clonidine: 500 uM) in OCTN2-expressing HEK293 cells

[12] = molecular target: T1, OCTN2 (organic cation/carnitine transporter 2); experiment: TP_TRANSPORTER: inhibition of Carnitine uptake (Carnitine: 0.010? uM, Corticosterone: 500 uM) in OCTN2-expressing HEK293 cells; type: functional, cell-based; set-up: scale not given: the % may be the effect or the level left; conditions: HEK293 cells that express OCTN2, probe Carnitine, read-out: Activity
[13] = molecular target: T2, Organic cation/carnitine transporter 2; experiment: TP_TRANSPORTER: inhibition of Carnitine uptake (Carnitine: 0.010? uM, Creatine: 500 uM) in OCTN2-expressing HEK293 cells; type: functional, cell-based; conditions: hek293, 500 µM
[14] = molecular target: T2, Organic cation/carnitine transporter 2; experiment: TP_TRANSPORTER: inhibition of Carnitine uptake (Carnitine: 0.010? uM, Creatinine: 500 uM) in OCTN2-expressing HEK293 cells; type: functional, cell-based; conditions: hek293, 500 µM
[15] = molecular target: T1, OCTN2 (organic cation/carnitine transporter 2); experiment: TP_TRANSPORTER: inhibition of Carnitine uptake (Carnitine: 0.010? uM, Actinomycin D: 100 uM) in OCTN2-expressing HEK293 cells; type: functional, cell-based; set-up: scale not given: the % may be the effect or the level left; conditions: HEK293 cells that express OCTN2, probe Carnitine, read-out: Activity
[16] = molecular target: T1, OCTN2 (organic cation/carnitine transporter 2); experiment: TP_TRANSPORTER: inhibition of Carnitine uptake (Carnitine: 0.010? uM, Emetine: 500 uM) in OCTN2-expressing HEK293 cells; type: functional, cell-based; set-up: scale not given: the % may be the effect or the level left; conditions: HEK293 cells that express OCTN2, probe Carnitine, read-out: Activity
[17] = molecular target: T2, Organic cation/carnitine transporter 2; experiment: TP_TRANSPORTER: inhibition of Carnitine uptake (Carnitine: 0.010? uM, Furosemide: 500 uM) in OCTN2-expressing HEK293 cells; type: functional, cell-based; conditions: hek293, 500 µM

## C[S+](C)CC[C@H](N)C(=O)[O-]
[1]
  activity at 500 µM: 8.7%

## C[n+]1ccc(-c2ccccc2)cc1
[2]
  Activity: is not a substrate [-]
[3]
  activity at 100 µM: 69.8%

## C[C@]12CCC(=O)C=C1CC[C@@H]1[C@@H]2[C@@H](O)C[C@]2(C=O)[C@@H](C(=O)CO)CC[C@@H]12 [ALDOSTERONE]
[4]
  activity at 500 µM: 37.1%

## N=C(N)NCCC[C@H](N)C(=O)O [ARGININE]
[5]
  Activity: is not an inhibitor [-]

## NCCC(=O)N[C@@H](Cc1cnc[nH]1)C(=O)O [CARNOSINE]
[6]
  Activity: is not an inhibitor [-]

## NC(=O)c1cc[n+](CC2=C(C(=O)O)N3C(=O)[C@@H](NC(=O)[C@@H](c4ccccc4)S(=O)(=O)[O-])[C@H]3SC2)cc1 [CEFSULODIN]
[7]
  activity at 500 µM: 32.8%

## CC(=O)OCC1=C(C(=O)O)N2C(=O)[C@@H](NC(=O)[C@H](N)c3ccccc3)[C@H]2SC1 [CEPHALOGLYCIN]
[8]
  Activity: is not an inhibitor [-]

## CC(=O)OCC1=C(C(=O)O)N2C(=O)[C@@H](NC(=O)Cc3cccs3)[C@H]2SC1 [CEPHALOTHIN]
[9]
  Activity: is not an inhibitor [-]

## CN/C(=N/CCSCc1nc[nH]c1C)NC#N [CIMETIDINE]
[2]
  Activity: is not a substrate [-]
[10]
  activity at 500 µM: 66.4%

## Clc1cccc(Cl)c1N=C1NCCN1 [CLONIDINE]
[11]
  activity at 500 µM: 67.6%

## C[C@]12C[C@H](O)[C@H]3[C@@H](CCC4=CC(=O)CC[C@@]43C)[C@@H]1CC[C@@H]2C(=O)CO [CORTICOSTERONE]
[12]
  activity at 500 µM: 9.3%

## CN(CC(=O)O)C(=N)N [CREATINE]
[13]
  Activity: is not an inhibitor [-]

## CN1CC(=O)NC1=N [CREATININE]
[14]
  Activity: is not an inhibitor [-]

## Cc1c2oc3c(C)ccc(C(=O)N[C@@H]4C(=O)N[C@H](C(C)C)C(=O)N5CCC[C@H]5C(=O)N(C)CC(=O)N(C)[C@@H](C(C)C)C(=O)O[C@@H]4C)c3nc-2c(C(=O)N[C@@H]2C(=O)N[C@H](C(C)C)C(=O)N3CCC[C@H]3C(=O)N(C)CC(=O)N(C)[C@@H](C(C)C)C(=O)O[C@@H]2C)c(N)c1=O [DACTINOMYCIN] (I: T[dV]P[Sar][NMeV] / II: T[dV]P[Sar][NMeV]; ester I:1-I:C, II:1-II:C; linker I:N-II:N via Actinocin(9to1))
[2]
  Activity: is not a substrate [-]
[15]
  activity at 100 µM: 69%

## CC[C@H]1CN2CCc3cc(OC)c(OC)cc3[C@@H]2C[C@@H]1C[C@H]1NCCc2cc(OC)c(OC)cc21 [EMETINE]
[16]
  activity at 500 µM: 16.6%

## NS(=O)(=O)c1cc(C(=O)O)c(NCc2ccco2)cc1Cl [FUROSEMIDE]
[17]
  Activity: is not an inhibitor [-]
